Measurements: ChEMBL document CHEMBL3102826 (J Med Chem, 2013)
Activity calls are given as the source filed them. No cut-off for these calls is given here.

How the values were obtained:
[1] = biological target: T1, Dual specificity tyrosine-phosphorylation-regulated kinase 1A (Rattus norvegicus, UniProt Q63470); assay: Inhibition of rat recombinant 6xHis-tagged DYRK1A catalytic domain (1 to 502) expressed in Escherichia coli BL21 (DE3) using N-terminal fluorescein coupled KISGRLSPIMTEQ as substrate after 30 mins by HPLC analysis in presence of 50 uM ATP
[2] = biological target: T1, Dual specificity tyrosine-phosphorylation-regulated kinase 1A; assay: Inhibition of rat recombinant 6xHis-tagged DYRK1A catalytic domain (1 to 502) expressed in Escherichia coli BL21 (DE3) using N-terminal fluorescein coupled KISGRLSPIMTEQ as substrate after 30 mins by HPLC analysis in presence of 1 mM ATP
[3] = Cytotoxicity against human KB cells assessed as growth inhibition at 10^-6 M after 72 hrs by resazurin dye-based fluorimetric analysis relative to control; type: cell-based; settings: read-out: GI
[4] = Cytotoxicity against human KB cells assessed as growth inhibition at 10^-5 M after 72 hrs by resazurin dye-based fluorimetric analysis relative to control; type: cell-based; settings: read-out: GI
[5] = biological target: High affinity nerve growth factor receptor (Homo sapiens) (UniProt P04629); assay: Inhibition of human TRKA at 5 x 10^-8 M
[6] = biological target: Serine/threonine-protein kinase pim-1 (Homo sapiens) (UniProt P11309); assay: Inhibition of human Pim1 kinase at 5 x 10^-8 M
[7] = biological target: Glycogen synthase kinase-3 beta (Homo sapiens) (UniProt P49841); assay: Inhibition of human GSK-3beta at 5 x 10^-8 M
[8] = biological target: Mitogen-activated protein kinase 1 (Homo sapiens) (UniProt P28482); assay: Inhibition of human ERK2 at 5 x 10^-8 M
[9] = biological target: T1, Dual specificity tyrosine-phosphorylation-regulated kinase 1A; assay: Competitive inhibition of rat recombinant 6xHis-tagged DYRK1A catalytic domain (1 to 502) expressed in Escherichia coli BL21 (DE3) using ATP as substrate by Michaelis-Menten plot analysis
[10] = biological target: T2, Dual specificity tyrosine-phosphorylation-regulated kinase 1A (Homo sapiens, UniProt Q13627); assay: Inhibition of DYRK1A (unknown origin) by HPLC analysis
[11] = biological target: T2, Dual specificity tyrosine-phosphorylation-regulated kinase 1A; assay: Inhibition of human GST-fused DYRK1A expressed in Escherichia coli using KISGRLSPIMTEQ as substrate
[12] = biological target: RAC-alpha serine/threonine-protein kinase (Homo sapiens) (UniProt P31749); assay: Inhibition of human AKT1 at 5 x 10^-8 M
[13] = biological target: T3, Dual specificity tyrosine-phosphorylation-regulated kinase 3 (Homo sapiens) (UniProt O43781); assay: Inhibition of human DYRK3 at 5 x 10^-8 M relative to control
T3 sequence (whole entry): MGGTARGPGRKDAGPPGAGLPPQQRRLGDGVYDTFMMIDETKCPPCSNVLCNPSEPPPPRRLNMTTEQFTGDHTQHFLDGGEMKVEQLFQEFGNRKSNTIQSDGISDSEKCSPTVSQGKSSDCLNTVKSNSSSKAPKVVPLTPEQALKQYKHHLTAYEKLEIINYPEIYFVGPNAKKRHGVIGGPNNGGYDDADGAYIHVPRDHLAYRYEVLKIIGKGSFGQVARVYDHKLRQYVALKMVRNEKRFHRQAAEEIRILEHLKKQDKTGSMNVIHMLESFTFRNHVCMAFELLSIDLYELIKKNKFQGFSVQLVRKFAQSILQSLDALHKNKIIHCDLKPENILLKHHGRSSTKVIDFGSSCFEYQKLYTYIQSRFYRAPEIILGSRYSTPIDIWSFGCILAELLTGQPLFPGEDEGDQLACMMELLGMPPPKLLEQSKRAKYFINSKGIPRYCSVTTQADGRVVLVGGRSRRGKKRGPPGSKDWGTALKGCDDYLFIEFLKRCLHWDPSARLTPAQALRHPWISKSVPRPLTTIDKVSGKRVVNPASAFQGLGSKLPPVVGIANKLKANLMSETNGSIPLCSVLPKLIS

[14] = biological target: T4, Dual specificity tyrosine-phosphorylation-regulated kinase 2 (Homo sapiens) (UniProt Q92630); assay: Inhibition of human DYRK2 at 5 x 10^-8 M relative to control
T4 sequence (whole entry): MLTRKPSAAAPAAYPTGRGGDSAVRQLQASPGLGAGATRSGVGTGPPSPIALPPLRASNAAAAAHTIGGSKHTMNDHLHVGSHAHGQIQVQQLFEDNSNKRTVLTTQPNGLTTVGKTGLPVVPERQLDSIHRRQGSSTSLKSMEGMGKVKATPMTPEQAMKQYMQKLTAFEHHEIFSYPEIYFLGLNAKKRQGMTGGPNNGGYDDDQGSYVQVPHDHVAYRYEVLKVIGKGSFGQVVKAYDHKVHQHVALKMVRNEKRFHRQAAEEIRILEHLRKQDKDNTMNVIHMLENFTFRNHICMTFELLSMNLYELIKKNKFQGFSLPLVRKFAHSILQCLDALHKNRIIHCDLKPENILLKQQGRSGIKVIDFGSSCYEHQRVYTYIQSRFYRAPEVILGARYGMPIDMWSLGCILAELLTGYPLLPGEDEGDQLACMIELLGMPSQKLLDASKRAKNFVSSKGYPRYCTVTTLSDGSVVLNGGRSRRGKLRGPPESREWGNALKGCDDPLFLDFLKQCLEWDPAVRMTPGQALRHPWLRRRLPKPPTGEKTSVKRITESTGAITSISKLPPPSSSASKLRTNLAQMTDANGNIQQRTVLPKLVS

[15] = biological target: CDK2/Cyclin A2 (Homo sapiens) (UniProt P24941+P20248); assay: Inhibition of human CDK2/cyclin A at 5 x 10^-8 M relative to control; type: protein-complex assay
[16] = biological target: Casein kinase I isoform alpha (Homo sapiens) (UniProt P48729); assay: Inhibition of human CK1alpha at 5 x 10^-8 M relative to control
Casein kinase I isoform alpha (Homo sapiens), sequence (P48729 2-337 limits assumed): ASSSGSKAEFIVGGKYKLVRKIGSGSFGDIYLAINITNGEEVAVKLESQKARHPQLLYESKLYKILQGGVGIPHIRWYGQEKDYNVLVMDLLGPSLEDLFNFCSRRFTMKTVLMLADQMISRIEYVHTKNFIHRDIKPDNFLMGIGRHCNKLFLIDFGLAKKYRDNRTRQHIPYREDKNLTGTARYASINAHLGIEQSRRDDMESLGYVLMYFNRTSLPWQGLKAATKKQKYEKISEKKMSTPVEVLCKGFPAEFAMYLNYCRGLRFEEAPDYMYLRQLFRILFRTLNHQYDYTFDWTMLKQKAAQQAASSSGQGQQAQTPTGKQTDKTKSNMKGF

Serine/threonine-protein kinase pim-1 (Homo sapiens), sequence (P11309 whole entry, looked up): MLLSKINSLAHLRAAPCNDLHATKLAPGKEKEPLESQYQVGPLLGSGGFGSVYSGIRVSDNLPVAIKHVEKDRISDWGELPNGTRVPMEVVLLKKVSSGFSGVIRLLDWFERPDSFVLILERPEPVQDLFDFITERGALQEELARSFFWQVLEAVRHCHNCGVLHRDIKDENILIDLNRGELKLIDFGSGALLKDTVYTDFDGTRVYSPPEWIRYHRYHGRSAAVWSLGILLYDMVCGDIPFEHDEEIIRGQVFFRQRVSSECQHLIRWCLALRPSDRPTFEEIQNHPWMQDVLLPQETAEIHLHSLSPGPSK
Glycogen synthase kinase-3 beta (Homo sapiens), sequence (P49841 whole entry, looked up): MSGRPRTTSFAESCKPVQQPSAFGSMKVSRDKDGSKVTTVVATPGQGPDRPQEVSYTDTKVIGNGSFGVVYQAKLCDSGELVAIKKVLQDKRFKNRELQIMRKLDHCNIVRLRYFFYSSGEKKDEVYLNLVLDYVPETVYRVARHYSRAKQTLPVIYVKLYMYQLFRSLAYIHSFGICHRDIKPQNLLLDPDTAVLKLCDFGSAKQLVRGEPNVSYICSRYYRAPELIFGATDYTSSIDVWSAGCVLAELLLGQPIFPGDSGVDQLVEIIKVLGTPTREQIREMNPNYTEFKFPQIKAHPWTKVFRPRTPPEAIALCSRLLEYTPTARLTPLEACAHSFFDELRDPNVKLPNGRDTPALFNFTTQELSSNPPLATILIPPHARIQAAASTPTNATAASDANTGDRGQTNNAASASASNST
High affinity nerve growth factor receptor (Homo sapiens), sequence (P04629 33-796 limits assumed): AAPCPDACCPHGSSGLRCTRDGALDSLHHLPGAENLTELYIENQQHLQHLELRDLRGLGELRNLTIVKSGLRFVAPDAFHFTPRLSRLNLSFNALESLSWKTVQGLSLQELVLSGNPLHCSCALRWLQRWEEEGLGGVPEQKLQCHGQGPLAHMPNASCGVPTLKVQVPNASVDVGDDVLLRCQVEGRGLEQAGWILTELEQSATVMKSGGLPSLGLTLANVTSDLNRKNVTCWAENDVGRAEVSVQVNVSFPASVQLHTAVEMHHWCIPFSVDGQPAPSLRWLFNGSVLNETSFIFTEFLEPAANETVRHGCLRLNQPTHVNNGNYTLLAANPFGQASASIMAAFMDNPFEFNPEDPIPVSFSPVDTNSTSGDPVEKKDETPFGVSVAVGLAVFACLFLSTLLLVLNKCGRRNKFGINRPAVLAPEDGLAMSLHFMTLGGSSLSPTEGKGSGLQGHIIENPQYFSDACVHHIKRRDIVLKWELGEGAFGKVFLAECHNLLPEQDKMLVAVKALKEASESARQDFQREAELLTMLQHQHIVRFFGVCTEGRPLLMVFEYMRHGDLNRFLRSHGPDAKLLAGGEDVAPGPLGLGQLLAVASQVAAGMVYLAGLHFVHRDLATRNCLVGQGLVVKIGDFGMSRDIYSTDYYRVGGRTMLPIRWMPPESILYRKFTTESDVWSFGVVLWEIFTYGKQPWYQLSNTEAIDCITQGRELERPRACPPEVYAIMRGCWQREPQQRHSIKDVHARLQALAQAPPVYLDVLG
Mitogen-activated protein kinase 1 (Homo sapiens), sequence (P28482 whole entry, the tested form may be a part): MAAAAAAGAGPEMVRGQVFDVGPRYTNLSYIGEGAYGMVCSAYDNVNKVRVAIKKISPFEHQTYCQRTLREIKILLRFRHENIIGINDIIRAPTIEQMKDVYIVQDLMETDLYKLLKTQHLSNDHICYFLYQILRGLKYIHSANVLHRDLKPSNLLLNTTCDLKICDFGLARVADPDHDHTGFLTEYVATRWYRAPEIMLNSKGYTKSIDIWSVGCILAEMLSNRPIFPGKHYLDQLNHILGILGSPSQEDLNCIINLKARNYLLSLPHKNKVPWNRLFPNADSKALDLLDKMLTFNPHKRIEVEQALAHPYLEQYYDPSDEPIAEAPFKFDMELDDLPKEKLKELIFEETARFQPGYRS
RAC-alpha serine/threonine-protein kinase (Homo sapiens), sequence (P31749 whole entry): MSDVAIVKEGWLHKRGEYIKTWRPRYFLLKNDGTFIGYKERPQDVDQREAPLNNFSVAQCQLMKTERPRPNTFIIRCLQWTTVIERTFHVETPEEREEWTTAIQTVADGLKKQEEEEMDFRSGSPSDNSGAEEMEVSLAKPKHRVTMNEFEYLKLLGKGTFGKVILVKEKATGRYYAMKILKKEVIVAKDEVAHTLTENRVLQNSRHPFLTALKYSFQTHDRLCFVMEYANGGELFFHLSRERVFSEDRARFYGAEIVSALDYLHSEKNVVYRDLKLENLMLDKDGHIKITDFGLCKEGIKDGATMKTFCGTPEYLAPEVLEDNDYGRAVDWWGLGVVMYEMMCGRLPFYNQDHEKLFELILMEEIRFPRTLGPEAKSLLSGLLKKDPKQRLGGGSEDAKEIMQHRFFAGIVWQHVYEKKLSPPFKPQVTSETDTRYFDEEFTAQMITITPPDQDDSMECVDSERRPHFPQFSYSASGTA

`Oc1ccc(-c2cnc3[nH]cc(-c4ccccc4)c3c2)c(O)c1` gave an IC50 [1] of 150 nM.

`Oc1ccc(-c2c[nH]c3ncc(-c4ccc(O)c(O)c4)cc23)cc1` gave an IC50 [2] of 5.5 nM, an IC50 [1] of 3 nM and an inhibition at 72 h, 1 µM [3] of 56%. For the same compound, the inhibition at 72 h, 10 µM [4] was 86%, the inhibition [5] was “inactive” and the inhibition [6] was “inactive”. The inhibition [7] was “inactive”, the inhibition [8] was “inactive” and the Ki [9] was < 2 nM.

`COc1ccc(-c2cnc3[nH]cc(-c4ccccc4)c3c2)cc1` gave an IC50 [1] of 960 nM.

`Oc1ccc(-c2cnc3[nH]cc(-c4ccccc4)c3c2)cc1O` showed an IC50 [1] of 160 nM.

In the case of `COc1ccc(-c2cc3c(-c4ccccc4)c[nH]c3cn2)cc1`, the IC50 [10] is reported as 17000 nM.

`COc1ccc(-c2cnc3[nH]cc(-c4ccc(OC)cc4)c3c2)cc1` showed an IC50 [1] of 1740 nM.

With `Oc1ccccc1-c1cnc2[nH]cc(-c3ccccc3)c2c1` the IC50 [1] was 3590 nM.

For `Oc1cccc(-c2cnc3[nH]cc(-c4ccccc4)c3c2)c1`, the IC50 [1] was 2700 nM.

With `COc1cccc(-c2cnc3[nH]cc(-c4ccccc4)c3c2)c1` the IC50 [1] was 7490 nM.

For `COc1ccc(OC)c(-c2cnc3[nH]cc(-c4ccc(OC)c(OC)c4)c3c2)c1`, the IC50 [1] was 1670 nM.

`COc1ccc(-c2c[nH]c3ncc(-c4ccc(OC)c(OC)c4)cc23)cc1` showed an IC50 [1] of 460 nM.

`Oc1ccc(-c2cnc3[nH]cc(-c4ccccc4)c3c2)cc1` gave an IC50 [1] of 330 nM.

For `COc1ccc(-c2cnc3[nH]cc(-c4ccccc4)c3c2)c(OC)c1`, the IC50 [1] was 1170 nM.

Work on `Oc1ccc(-c2cnc3[nH]cc(-c4ccc(O)cc4)c3c2)cc1` yielded an IC50 [2] of 43 nM, an IC50 [1] of 23.1 nM and an inhibition at 72 h, 1 µM [3] of 51%. For the same compound, the inhibition at 72 h, 10 µM [4] was 95%, the inhibition [5] was “inactive” and the inhibition [6] was “inactive”. The inhibition [7] was “inactive”, the inhibition [8] was “inactive” and the Ki [9] was 2.3 nM.

For `COc1ccc(-c2c[nH]c3ncc(-c4ccc(OC)cc4OC)cc23)cc1`, the IC50 [1] was 280 nM.

With `Oc1ccc(-c2cnc3[nH]cc(-c4ccc(O)c(O)c4)c3c2)c(O)c1` the IC50 [1] was 14.3 nM, the inhibition at 72 h, 1 µM [3] was 0% and the inhibition at 72 h, 10 µM [4] was 9%. It also gave a Ki [9] of 7.6 nM.

With `COc1ccc(-c2cnc3[nH]cc(-c4ccc(OC)c(OC)c4)c3c2)cc1OC` the IC50 [1] was 57800 nM.

`COc1ccc(-c2cnc3[nH]cc(-c4ccccc4)c3c2)cc1OC` showed an IC50 [1] of 3080 nM.

`Oc1cccc(-c2cnc3[nH]cc(-c4cccc(O)c4)c3c2)c1` gave an IC50 [1] of 105 nM.

`COc1ccc(-c2cnc3[nH]cc(-c4ccc(OC)c(OC)c4)c3c2)c(OC)c1` gave an IC50 [1] of 2880 nM.

`COc1ccccc1-c1cnc2[nH]cc(-c3ccccc3)c2c1` showed an IC50 [1] of 960 nM.

Compound `O=C(O[C@@H]1Cc2c(O)cc(O)cc2O[C@@H]1c1cc(O)c(O)c(O)c1)c1cc(O)c(O)c(O)c1` [EPIGALOCATECHIN GALLATE] has an IC50 [11] of 330 nM.

Work on `c1ccc(-c2cnc3[nH]cc(-c4ccccc4)c3c2)cc1` yielded an IC50 [1] of 410 nM.

`COc1cccc(-c2cnc3[nH]cc(-c4cccc(OC)c4)c3c2)c1` showed an IC50 [1] of 14600 nM.

In the case of `Oc1ccc(-c2cnc3[nH]cc(-c4ccc(O)c(O)c4)c3c2)cc1O`, the IC50 [2] is reported as 32 nM, the IC50 [1] is reported as 12.4 nM and the inhibition [12] is reported as “Active”. The inhibition at 72 h, 1 µM [3] was 2%, the inhibition at 72 h, 10 µM [4] was 11% and the Ki [9] was 10.1 nM.

With `Oc1ccc(-c2c[nH]c3ncc(-c4ccc(O)cc4O)cc23)cc1` the IC50 [2] was 48 nM, the IC50 [1] was 11.7 nM and the inhibition at 72 h, 1 µM [3] was 21%. For the same compound, the inhibition at 72 h, 10 µM [4] was 83%, the inhibition [13] was < 50% and the inhibition [14] was < 50%. The inhibition [15] was < 50%, the inhibition [16] was < 50% and the inhibition [5] was “inactive”. The inhibition [6] was “inactive”, the inhibition [7] was “inactive” and the inhibition [8] was “inactive”. The Ki [9] was 5.5 nM.

For `Oc1ccc(-c2cc3c(-c4ccccc4)c[nH]c3cn2)cc1`, the IC50 [10] was 27400 nM.

Compound `Oc1ccc(O)c(-c2cnc3[nH]cc(-c4ccc(O)c(O)c4)c3c2)c1` has an IC50 [1] of 39.1 nM and a Ki [9] of 12.1 nM.
